Source: patent US20060276446A1, “Tricyclic 6-alkylidene-penems as class-D beta-lactamases inhibitors” (priority 2005, published 2006)

test system: not given; experiment: not given; settings: not given

Row | Molecule | melting point
1 | O=C([O-])C1=CS[C@@H]2/C(=C\c3nc4ncc5c(n4n3)CCC3(C5)OCCO3)C(=O)N12.[Na+] [Example 24, (5R,6Z)-6-(8′,9′-dihydro-6′H-spiro[1,3-dioxolane-2,7′-[1,2,4]triazolo[1,5-a]quinazolin]-2′-ylmethylene)-7-oxo-4-thia-1-azabicyclo[3.2.0]hept-2-ene-2-carboxylic acid, sodium salt] | > 250 °C (dec.)
2 | Cc1nc2nc(/C=C3/C(=O)N4C(C(=O)[O-])=CS[C@H]34)nn2c2c1CCCC2.[Na+] [Example 25, (5R,6Z)-6-[(5-methyl-6,7,8,9-tetrahydro[1,2,4]triazolo[1,5-a]quinazolin-2-yl)methylene]-7-oxo-4-thia-1-azabicyclo[3.2.0]hept-2-ene-2-carboxylic acid, sodium salt] | 250 °C (dec.)
3 | O=C([O-])C1=CS[C@@H]2/C(=C\c3cn4c5c(c(OCCOCc6ccccc6)nc4n3)CCC5)C(=O)N12.[Na+] [Example 27, (5R,6Z)-6-({5-[2-(benzyloxy)ethoxy]-7,8-dihydro-6H-cyclopenta[e]imidazo[1,2-a]pyrimidin-2-yl}methylene)-7-oxo-4-thia-1-azabicyclo[3.2.0]hept-2-ene-2-carboxylic acid, sodium salt] | > 250 °C
4 | O=C([O-])C1=CS[C@@H]2/C(=C\c3ccc4nc5n(c4c3)CCCS5)C(=O)N12.[Na+] [Example 29, (5R,6Z)-6-(3,4-dihydro-2H-[1,3]thiazino[3,2-a]benzimidazol-7-ylmethylene)-7-oxo-4-thia-1-azabicyclo[3.2.0]hept-2-ene-2-carboxylic acid, sodium salt] | > 250 °C
5 | O=C([O-])C1=CS[C@@H]2/C(=C\c3ccc4nc5sccn5c4c3)C(=O)N12.[Na+] [Example 30, (5R,6Z)-7-oxo-6-([1,3]thiazolo[3,2-a]benzimidazol-6-ylmethylene)-4-thia-1-azabicyclo[3.2.0]hept-2-ene-2-carboxylic acid, sodium salt] | > 250 °C

test system: class-D producing organism E. coli GC 2883 (OXA-10 + PSE-2); experiment: Antimicrobial susceptibility testing, microbroth dilution (NCCLS): piperacillin combined with β-lactamase inhibitor; format: cell-based; settings: MIC of piperacillin combined with constant 4 μg/mL of the β-lactamase inhibitor (example compound), 35° C. for 18 hours
Procedure: Antimicrobial susceptibility testing. The in vitro activities of the antibiotic, piperacillin in this case, against resistant pathogens expressing class-D enzymes were determined by the microbroth dilution method as recommended by the National Committee for Clinical Laboratory Standards (NCCLS). (NCCLS. 2000. Methods for Dilution Antimicrobial Susceptibility Tests for Bacteria That Grow Aerobically; Approved Standards: M7-A5, vol. 19. National Committe for Clinical Laboratory Standards, Villanova, Pa.). Mueller-Hinton II broth (MHBII)(BBL Cockeysville, Md.), was used for the testing procedure. Microtiter plates containing 50 μl per well of two-fold serial dilutions of piperacillin combined with a constant amount (4 μg/mL) of β-lactamase inhibitor (final concentration) were inoculated with 50 μl of inoculum to yield the appropriate density (10^5 CFU/mL) in 100 μL. The plates were incubated for 18-22 hours at 35° C. in ambient air. […] Both OXA-10 and PSE-2 are class D β-lactamases. (Bush, K., Jacoby, G. A., Medeiros, A. A. Antimicrob. Agents Chemother., 1995, 39, 1211).

Row | Molecule | Minimal Inhibitory Concentration (MIC50)
6 | COc1ccc2c(c1)sc1nc(/C=C3/C(=O)N4C(C(=O)O)=CS[C@H]34)cn12 [Example 2] | 4 mg/L
7 | O=C(O)C1=CS[C@@H]2/C(=C\c3cn4c(n3)sc3cc(Cl)ccc34)C(=O)N12 [Example 3] | 2 mg/L
8 | O=C(O)C1=CS[C@@H]2/C(=C\c3cn4c(ccc5ccccc54)n3)C(=O)N12 [Example 4, (5R),(6Z)-6-Imidazo[1,2-a]quinolin-2-ylmethylene-7-oxo-4-thia-1-azabicyclo[3.2.0]hept-2-ene-2-carboxylic acid] | 4 mg/L
9 | O=C(O)C1=CS[C@@H]2/C(=C\c3cn4c5c(sc4n3)CCC5)C(=O)N12 [Example 5, (5R),(6Z)-6-(6,7-dihydro-5H-cyclopenta[d]imidazo[2,1-b][1,3]thiazol-2-ylmethylene)-7-oxo-4-thia-1-azabicyclo[3.2.0]hept-2-ene-2-carboxylic acid] | 2 mg/L
10 | O=C([O-])C1=CS[C@@H]2/C(=C\c3cn4c(cnc5ccccc54)n3)C(=O)N12.[Na+] [Example 6, (5R),(6Z)-6-(Imidazo[1,2-a]quinoxaline-2-ylmethylene)-7-oxo-4-thia-1-azabicyclo[3.2.0]hepto-2-ene-2-carboxylic acid, sodium salt] | 0.06 mg/L
11 | Cc1ccc2c(c1)sc1nc(/C=C3/C(=O)N4C(C(=O)O)=CS[C@H]34)cn12 [Example 7] | 2 mg/L
12 | O=C([O-])C1=CS[C@@H]2/C(=C\c3cn4c(n3)nc3n4CCCC3)C(=O)N12.[Na+] [Example 8, (5R),(6Z)-6-(4,5,6,7-tetrahydro-1,3a,3b,8-tetraaza-cyclopenta[a]indene-2-ylmethylene)-7-oxo-4-thia-1-aza-bicyclo[3.2.0]hept-2-ene-2-carboxylic acid sodium salt] | 2 mg/L
13 | O=C([O-])C1=CS[C@@H]2C(=Cc3cc4n(n3)Cc3ccccc3OC4)C(=O)N12.[Na+] [Example 11, (5R,6E&Z)-7-oxo-6-(4H,10H-pyrazolo[5,1-c][1,4]benzoxazepin-2-ylmethylene)-4-thia-1-azabicyclo[3.2.0]hept-2-ene-2-carboxylic acid, sodium salt] | 4 mg/L
14 | O=C([O-])C1=CS[C@@H]2/C(=C\c3cn4c(n3)-c3ccccc3C4)C(=O)N12.[Na+] [Example 12, (5R),(6Z)-6-(5H-Imidazo[2,1-a]isoindol-2-ylmethylene)-7-oxo-4-thia-1-aza-bicyclo[3.2.0]hept-2-ene-2-carboxylic acid sodium salt] | 16 mg/L
15 | Cc1cccc2sc3nc(/C=C4/C(=O)N5C(C(=O)O)=CS[C@H]45)cn3c12 [Example 13] | 4 mg/L
16 | O=C(O)C1=CS[C@@H]2/C(=C\c3cn4c(n3)sc3cc(F)ccc34)C(=O)N12 [Example 14] | 4 mg/L
17 | O=C(O)C1=CS[C@@H]2/C(=C\c3cn4c5c(sc4n3)COCC5)C(=O)N12 [Example 15, (5R),(6Z)-6-(5,8-dihydro-6H-imidazo[2,1-b]pyrano[4,3-d][1,3]thiazol-2-ylmethylene)-7-oxo-4-thia-1-azabicyclo[3.2.0]hept-2-ene-2-carboxylic acid] | 4 mg/L
18 | O=C(O)C1=CS[C@@H]2/C(=C\c3ccc4c(c3)sc3nccn34)C(=O)N12 [Example 16, (5R),(6Z)-6-(imidazo[2,1-b]bebzothiazol-7-ylmethylene)-7-oxo-4-thia-1-azabicyclo[3.2.0]hept-2-ene-2-carboxylic acid] | 32 mg/L
19 | O=C(O)C1=CS[C@@H]2/C(=C\c3cn4c(nc5ccccc54)s3)C(=O)N12 [Example 17, (5R),(6Z)-7-oxo-6-([1,3]thiazolo[3,2-a]benzimidazol-2-ylmethylene)-4-thia-1-azabicyclo[3.2.0]hept-2-ene-2-carboxylic acid] | 32 mg/L
20 | O=C(O)C1=CS[C@@H]2/C(=C\c3cn4nc5c(c4s3)CCC5)C(=O)N12 [Example 18, (5R),(6Z)-6-(7,8-dihydro-6H-cyclopenta[3.4]pyrazolo[5,1-b][1,3]thiazol-2-ylmethylene)-7-oxo-6-4-thia-1-azabicyclo[3.2.0]hept-2-ene-2-carboxylic acid] | 16 mg/L
21 | O=C(O)C1=CS[C@@H]2/C(=C\c3cn4c5c(sc4n3)CCCC5)C(=O)N12 [Example 19, (5R),(6Z)-7-oxo-6-(5,6,7,8-tetrahydroimidazo[2,1-b][1,3]benzothiazol-2-ylmethylene)-4-thia-1-azabicyclo[3.2.0]hept-2-ene-2-carboxylic acid] | 2 mg/L
22 | Cn1c2ccccc2n2cc(/C=C3/C(=O)N4C(C(=O)O)=CS[C@H]34)nc12 [Example 20, (5R),(6Z)-8-[(9-methyl-9H-imidazo[1,2-a]benzimidazol-2-yl)methylene]-7-oxo-4-thia-1-azabicyclo[3.2.0]hept-2-ene-2-carboxylic acid] | 64 mg/L
23 | O=C([O-])C1=CS[C@@H]2/C(=C\c3cccc4nc5n(c34)CCS5)C(=O)N12.[Na+] [Example 28, (5R,6Z)-6-(2,3-dihydro[1,3]thiazolo[3,2-a]benzimidazol-4-ylmethylene)-7-oxo-4-thia-1-azabicyclo[3.2.0]hept-2-ene-2-carboxylic acid, sodium salt] | 16 mg/L
24 | CCOC(=O)N1CCc2c(oc3cc(/C=C4/C(=O)N5C(C(=O)[O-])=CS[C@H]45)nn23)C1.[Na+] [Example 33] | 8 mg/L
25 | (5R,6Z)-7-oxo-6-(4H-thieno[2′,3′:4,5]thiopyrano[2,3-b]pyridin-2-ylmethylene)-4-thia-1-azabicyclo[3.2.0]hept-2-ene-2-carboxylic acid (Sodium salt) [Example 21] | 64 mg/L
